Test results as given in patent US8865134B2, “Chewing gum” (Med-Eq AS, priority 2005, dated 2014).

System: amylase enzyme
Test: Amylase inhibition (salivary and intestinal amylase)
Assay type: biochemical
Conditions: amylase present in saliva and in the gut

## O=C(/C=C/c1ccc(O)c(O)c1)O[C@@H]1C[C@](O)(C(=O)O)C[C@@H](O)[C@H]1O [chlorogenic acid]
  Effect on amylase enzyme: blocks the amylase enzyme
